# Experimental data taken from patent US11713335B2, “Aminocoumarin compounds and methods of their use” (President and Fellows of Harvard College, priority 2018, dated 2023).
# Tests used:
# Type in all cases: cell-based
# S. aureus RN4220 = assay: Minimal inhibitory concentration, S. aureus RN4220; settings: Staphylococcus aureus, RN4220, 16 h, 16 hour minimal inhibitory concentration at 37° C.; read-out: MIC (μM) S. aureus RN4220
# Experimental: (§1) General Procedure for Determination of Minimal Inhibitory Concentrations
# (§2) Overnight cultures (5 mL) of bacterial strains were grown in LB media or TSA media (for S. aureus) at 37° C. and with shaking at 220 rpm until saturation. The overnight culture was diluted serially 1:100 (50 μL in 5 mL sterile media) and then 1:100 (250 μL in 25 mL sterile media). The 25 mL of diluted culture was then dispensed to a sterile 96 well plate (Corning #3370). 198 μL of culture were dispensed into row A and 100 μL of this culture were dispensed into rows B-H. Aminocoumarin compound (DMSO stock) were added to the first row and then the row was mixed by pipetting. 100 μL of culture from row A were transferred to row B and the serial dilution continued until the final 100 μL from row H were discarded. The plate was incubated without shaking in a 37° C. for 16 hours and then read by visible light spectrophotometer (Molecular Devices) at 600 nm. The minimal inhibitory concentration (MIC) was determined as the lowest concentration of compound concentration that inhibited the growth of bacteria.
# (§3) The compounds of the invention were assessed for activities against the pathogens S. aureus RN4220 and MW2, E. cloacae 13047, A. baumannii 19606, K. pneumoniae 700721, E. coli MC4100, 25922. All activities are reported in micromolar (uM) and are 16 hour minimal inhibitory concentrations at 37° C. The assay is detailed in Example 11 and is titled “General Procedure for Determination of Minimal Inhibitory Concentrations.”
# S. aureus MW2 = assay: Minimal inhibitory concentration, S. aureus MW2; settings: Staphylococcus aureus, MRSA, 16 h, 16 hour minimal inhibitory concentration at 37° C.; read-out: MIC (μM) S. aureus MW2 (MRSA)
# Experimental: as §1, §2, §3
# E. cloacae 13047 = assay: Minimal inhibitory concentration, E. cloacae 13047; settings: Enterobacter cloacae, 13047; 16 hour minimal inhibitory concentration at 37° C.; read-out: MIC (μM) E. cloacae 13047
# Experimental: as §1, §2, §3
# A. baumannii 19606 = assay: Minimal inhibitory concentration, A. baumannii 19606; settings: Acinetobacter baumannii, 19606, 16 h, 16 hour minimal inhibitory concentration at 37° C.; read-out: MIC (μM) A. baumannii 19606
# Experimental: as §1, §2, §3
# K. pneumoniae 700721 = assay: Minimal inhibitory concentration, K. pneumoniae 700721; settings: Klebsiella pneumoniae, 700721; 16 hour minimal inhibitory concentration at 37° C.; read-out: MIC (μM) K. pneumoniae 700721
# Experimental: as §1, §2, §3
# E. coli MC4100 = assay: Minimal inhibitory concentration, E. coli MC4100; settings: Escherichia coli, MC4100, 16 h, 16 hour minimal inhibitory concentration at 37° C.; read-out: MIC (μM) E. coli MC4100 ara+
# Experimental: as §1, §2, §3
# E. coli 25922 = assay: Minimal inhibitory concentration, E. coli 25922; settings: Escherichia coli, 25922, 16 h, 16 hour minimal inhibitory concentration at 37° C.; read-out: MIC (μM) E. coli 25922
# Experimental: as §1, §2, §3
SMILES,MIC (S. aureus RN4220),MIC (S. aureus MW2),MIC (E. cloacae 13047),MIC (A. baumannii 19606),MIC (K. pneumoniae 700721),MIC (E. coli MC4100),MIC (E. coli 25922)
CO[C@@H]1[C@@H](OC(N)=O)[C@@H](O)[C@H](Oc2ccc3c(O)c(NC(=O)c4ccc(I)c(-c5ccccc5)c4)c(=O)oc3c2C)OC1(C)C [Compound 227],4 µM,4 µM,> 100 µM,> 50 µM,34 µM,9 µM,34 µM
Cc1c(O)ccc2c(O)c(NC(=O)c3ccc(I)c(-c4ccccc4)c3)c(=O)oc12 [Compound 228],97 µM,97 µM,> 100 µM,> 50 µM,> 100 µM,> 200 µM,> 200 µM
C#Cc1cccc(C(=O)Nc2c(O)c3ccc(O[C@@H]4OC(C)(C)[C@H](OC)[C@@H](OC(N)=O)[C@H]4O)c(C)c3oc2=O)c1 [Compound 229],90 µM,90 µM,> 100 µM,> 50 µM,> 100 µM,> 200 µM,> 200 µM
C#CCOc1cccc(C(=O)Nc2c(O)c3ccc(O[C@@H]4OC(C)(C)[C@H](OC)[C@@H](OC(N)=O)[C@H]4O)c(C)c3oc2=O)c1 [Compound 230],86 µM,86 µM,> 100 µM,> 50 µM,> 100 µM,86 µM,172 µM
CO[C@@H]1[C@@H](OC(N)=O)[C@@H](O)[C@H](Oc2ccc3c(O)c(NC(=O)c4ccccc4Br)c(=O)oc3c2C)OC1(C)C [Compound 231],> 100 µM,> 100 µM,> 100 µM,> 50 µM,> 100 µM,> 200 µM,> 200 µM
CO[C@@H]1[C@@H](OC(N)=O)[C@@H](O)[C@H](Oc2ccc3c(O)c(NC(=O)c4cccc(Br)c4)c(=O)oc3c2C)OC1(C)C [Compound 232],82 µM,82 µM,> 100 µM,> 50 µM,> 100 µM,> 200 µM,> 200 µM
CO[C@@H]1[C@@H](OC(N)=O)[C@@H](O)[C@H](Oc2ccc3c(O)c(NC(=O)c4ccc(C(=O)c5ccccc5)cc4)c(=O)oc3c2C)OC1(C)C [Compound 233],40 µM,40 µM,> 100 µM,> 50 µM,> 100 µM,> 200 µM,> 200 µM
CO[C@@H]1[C@@H](OC(N)=O)[C@@H](O)[C@H](Oc2ccc3c(O)c(NC(=O)c4cccc(-c5cccc(Br)c5)c4)c(=O)oc3c2C)OC1(C)C [Compound 234],0.73 µM,0.46 µM,> 100 µM,18 µM,> 100 µM,18 µM,18 µM
CO[C@@H]1[C@@H](OC(N)=O)[C@@H](O)[C@H](Oc2ccc3c(O)c(NC(=O)c4cccc(-c5ccccc5Br)c4)c(=O)oc3c2C)OC1(C)C [Compound 235],9 µM,5 µM,> 100 µM,> 50 µM,> 100 µM,18 µM,18 µM
CO[C@@H]1[C@@H](OC(N)=O)[C@@H](O)[C@H](Oc2ccc3c(O)c(NC(=O)c4ccnc(Oc5ccccc5)c4)c(=O)oc3c2C)OC1(C)C [Compound 237],> 100 µM,> 100 µM,> 100 µM,> 50 µM,> 100 µM,> 100 µM,> 200 µM
CO[C@@H]1[C@@H](OC(N)=O)[C@@H](O)[C@H](Oc2ccc3c(O)c(NC(=O)c4cccc(Oc5ccc(Cl)cc5)n4)c(=O)oc3c2C)OC1(C)C [Compound 238],10 µM,10 µM,> 100 µM,> 50 µM,> 100 µM,152 µM,> 200 µM
CO[C@@H]1[C@@H](OC(N)=O)[C@@H](O)[C@H](Oc2ccc3c(O)c(NC(=O)c4cc(Oc5ccccc5)ccn4)c(=O)oc3c2C)OC1(C)C [Compound 239],20 µM,20 µM,> 100 µM,> 50 µM,> 100 µM,> 200 µM,> 200 µM
COc1cccc(Oc2cccc(C(=O)Nc3c(O)c4ccc(O[C@@H]5OC(C)(C)[C@H](OC)[C@@H](OC(N)=O)[C@H]5O)c(C)c4oc3=O)c2)c1 [Compound 240],19.2 µM,19.2 µM,> 100 µM,> 50 µM,> 100 µM,4.5 µM,38 µM
CO[C@@H]1[C@@H](OC(N)=O)[C@@H](O)[C@H](Oc2ccc3c(O)c(NC(=O)c4cccc(Oc5cccc(C(F)(F)F)c5)c4)c(=O)oc3c2C)OC1(C)C [Compound 241],9.08 µM,9.08 µM,> 100 µM,> 50 µM,> 100 µM,155 µM,145 µM
CO[C@@H]1[C@@H](OC(N)=O)[C@@H](O)[C@H](Oc2ccc3c(O)c(NC(=O)c4cccc(Oc5ccc(C#N)cc5)c4)c(=O)oc3c2C)OC1(C)C [Compound 242],> 100 µM,77 µM,> 100 µM,> 50 µM,> 100 µM,153 µM,154 µM
CO[C@@H]1[C@@H](OC(N)=O)[C@@H](O)[C@H](Oc2ccc3c(O)c(NC(=O)c4cccc(Oc5ccc(Cl)cc5)c4)c(=O)oc3c2C)OC1(C)C [Compound 243],10 µM,10 µM,> 100 µM,> 50 µM,> 100 µM,4.8 µM,38 µM
CO[C@@H]1[C@@H](OC(N)=O)[C@@H](O)[C@H](Oc2ccc3c(O)c(NC(=O)c4cc(Oc5ccccc5)c(O)cc4O)c(=O)oc3c2C)OC1(C)C [Compound 244],19 µM,19 µM,> 100 µM,> 50 µM,38 µM,4.8 µM,38 µM
CO[C@@H]1[C@@H](OC(N)=O)[C@@H](O)[C@H](Oc2ccc3c(O)c(NC(=O)c4cccc(Oc5cccc(Cl)c5)c4)c(=O)oc3c2C)OC1(C)C [Compound 245],10 µM,19 µM,> 100 µM,> 50 µM,> 100 µM,38 µM,76 µM
CO[C@@H]1[C@@H](OC(N)=O)[C@@H](O)[C@H](Oc2ccc3c(O)c(NC(=O)c4cccc(Oc5ccccc5Cl)c4)c(=O)oc3c2C)OC1(C)C [Compound 246],10 µM,5 µM,> 100 µM,> 50 µM,> 100 µM,79 µM,76 µM
CO[C@@H]1[C@@H](OC(N)=O)[C@@H](O)[C@H](Oc2ccc3c(O)c(NC(=O)c4cccc(Oc5cccc(C)c5)c4)c(=O)oc3c2C)OC1(C)C [Compound 247],10 µM,5 µM,> 100 µM,> 50 µM,> 100 µM,18 µM,39 µM
CO[C@@H]1[C@@H](OC(N)=O)[C@@H](O)[C@H](Oc2ccc3c(O)c(NC(=O)c4cccc(Oc5ccc(C(C)(C)C)cc5)c4)c(=O)oc3c2C)OC1(C)C [Compound 248],2.3 µM,2.3 µM,> 100 µM,> 50 µM,> 100 µM,> 200 µM,148 µM
